Assay results as given in patent US12077503B2, “Substituted cyclic amides and their use as herbicides” (FMC CORPORATION, priority 2015, dated 2024).

Columns and labels:
Format in all cases: in vivo
[1] = tested on: giant foxtail (Setaria faberi); test: Test G Pre-Emergence Protocol; conditions: Setaria faberi, pre-emergence, 312 h, evaluated after 13 days; for pest or weed control at 15.625 g/ha: 15.625 g ai/ha; for pest or weed control at 15.625 g/ha / pest or weed control at 250 g/ha: read-out: Foxtail, Giant damage rating (100=total damage to plant; 0=no damage to plant); for pest or weed control at 62.5 g/ha: 62.5 g ai/ha, 100=total damage to plant, 0=no damage to plant, read-out: Foxtail, Giant damage rating; for pest or weed control at 250 g/ha: 250 g ai/ha
In short: (§1)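 Herbicidal effect was rated 13 days post-application on a scale where 100 equals total damage. Spraying took place the day after sowing, using 15.625, 62.5 or 250 g/ha of compound in a 50:50 acetone/water solution with 0.5% Tween 20.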

[2] = tested on: velvetleaf (Abutilon theophrasti); test: Test G Pre-Emergence Protocol; conditions: Abutilon theophrasti, pre-emergence, 312 h, evaluated after 13 days; for pest or weed control at 15.625 g/ha: 15.625 g ai/ha; for pest or weed control at 15.625 g/ha / pest or weed control at 250 g/ha: read-out: Velvetleaf damage rating (100=total damage to plant; 0=no damage to plant); for pest or weed control at 62.5 g/ha: 62.5 g ai/ha, 100=total damage to plant, 0=no damage to plant, read-out: Velvetleaf damage rating; for pest or weed control at 250 g/ha: 250 g ai/ha
In short: as §1

corn (Zea mays) [3] = test: Test G Pre-Emergence Protocol; conditions: Zea mays, pre-emergence, 312 h, evaluated after 13 days; for plant injury at 15.625 g/ha: 15.625 g ai/ha; for plant injury at 15.625 g/ha / plant injury at 250 g/ha: read-out: Corn damage rating (100=total damage to plant; 0=no damage to plant); for plant injury at 62.5 g/ha: 62.5 g ai/ha, 100=total damage to plant, 0=no damage to plant, read-out: Corn damage rating; for plant injury at 250 g/ha: 250 g ai/ha
In short: as §1

[4] = tested on: barnyardgrass (Echinochloa crus-galli); test: Test G Pre-Emergence Protocol; conditions: Echinochloa crus-galli, pre-emergence, 312 h, evaluated after 13 days; for pest or weed control at 15.625 g/ha: 15.625 g ai/ha; for pest or weed control at 15.625 g/ha / pest or weed control at 250 g/ha: read-out: Barnyardgrass damage rating (100=total damage to plant; 0=no damage to plant); for pest or weed control at 62.5 g/ha: 62.5 g ai/ha, 100=total damage to plant, 0=no damage to plant, read-out: Barnyardgrass damage rating; for pest or weed control at 250 g/ha: 250 g ai/ha
In short: as §1

[5] = tested on: ivy-leaved morning glory (Ipomoea hederacea); test: Test G Pre-Emergence Protocol; conditions: Ipomoea, pre-emergence, 312 h, evaluated after 13 days; for pest or weed control at 15.625 g/ha: 15.625 g ai/ha; for pest or weed control at 15.625 g/ha / pest or weed control at 250 g/ha: read-out: Morningglory, Ivy-leaved damage rating (100=total damage to plant; 0=no damage to plant); for pest or weed control at 62.5 g/ha: 62.5 g ai/ha, 100=total damage to plant, 0=no damage to plant, read-out: Morningglory, Ivy-leaved damage rating; for pest or weed control at 250 g/ha: 250 g ai/ha
In short: as §1

[6] = tested on: redroot pigweed (Amaranthus retroflexus); test: Test G Pre-Emergence Protocol; conditions: Amaranthus retroflexus, pre-emergence, 312 h, evaluated after 13 days; for pest or weed control at 15.625 g/ha: 15.625 g ai/ha; for pest or weed control at 15.625 g/ha / pest or weed control at 250 g/ha: read-out: Pigweed, Redroot damage rating (100=total damage to plant; 0=no damage to plant); for pest or weed control at 62.5 g/ha: 62.5 g ai/ha, 100=total damage to plant, 0=no damage to plant, read-out: Pigweed, Redroot damage rating; for pest or weed control at 250 g/ha: 250 g ai/ha
In short: as §1

[7] = tested on: giant foxtail (Setaria faberi); test: Test G Post-Emergence Protocol; conditions: Setaria faberi, post-emergence, 312 h, read-out: Foxtail, Giant damage rating; for pest or weed control at 15.625 g/ha: 15.625 g ai/ha, evaluated after 13 days (100=total damage to plant; 0=no damage to plant); for pest or weed control at 62.5 g/ha: 62.5 g ai/ha; for pest or weed control at 62.5 g/ha / pest or weed control at 250 g/ha: evaluated after 13 days, 100=total damage to plant, 0=no damage to plant; for pest or weed control at 250 g/ha: 250 g ai/ha
In short: (§2)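 Sow in soil; grow 8 d (24/16 °C, 14 h light, 65% humidity); spray 15.625/62.5/250 g/ha in acetone:water 50:50 + 0.5% Tween 20; grow on, water twice daily; score damage 0–100 at 13 d.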

[8] = tested on: velvetleaf (Abutilon theophrasti); test: Test G Post-Emergence Protocol; conditions: Abutilon theophrasti, post-emergence, 312 h, read-out: Velvetleaf damage rating; for pest or weed control at 15.625 g/ha: 15.625 g ai/ha, evaluated after 13 days (100=total damage to plant; 0=no damage to plant); for pest or weed control at 62.5 g/ha: 62.5 g ai/ha; for pest or weed control at 62.5 g/ha / pest or weed control at 250 g/ha: evaluated after 13 days, 100=total damage to plant, 0=no damage to plant; for pest or weed control at 250 g/ha: 250 g ai/ha
In short: as §2

corn (Zea mays) [9] = test: Test G Post-Emergence Protocol; conditions: Zea mays, post-emergence, 312 h, read-out: Corn damage rating; for plant injury at 15.625 g/ha: 15.625 g ai/ha, evaluated after 13 days (100=total damage to plant; 0=no damage to plant); for plant injury at 62.5 g/ha: 62.5 g ai/ha; for plant injury at 62.5 g/ha / plant injury at 250 g/ha: evaluated after 13 days, 100=total damage to plant, 0=no damage to plant; for plant injury at 250 g/ha: 250 g ai/ha
In short: as §2

[10] = tested on: barnyardgrass (Echinochloa crus-galli); test: Test G Post-Emergence Protocol; conditions: Echinochloa crus-galli, post-emergence, 312 h, read-out: Barnyardgrass damage rating; for pest or weed control at 15.625 g/ha: 15.625 g ai/ha, evaluated after 13 days (100=total damage to plant; 0=no damage to plant); for pest or weed control at 62.5 g/ha: 62.5 g ai/ha; for pest or weed control at 62.5 g/ha / pest or weed control at 250 g/ha: evaluated after 13 days, 100=total damage to plant, 0=no damage to plant; for pest or weed control at 250 g/ha: 250 g ai/ha
In short: as §2

[11] = tested on: ivy-leaved morning glory (Ipomoea hederacea); test: Test G Post-Emergence Protocol; conditions: Ipomoea, post-emergence, 312 h, read-out: Morningglory, Ivy-leaved damage rating; for pest or weed control at 15.625 g/ha: 15.625 g ai/ha, evaluated after 13 days (100=total damage to plant; 0=no damage to plant); for pest or weed control at 62.5 g/ha: 62.5 g ai/ha; for pest or weed control at 62.5 g/ha / pest or weed control at 250 g/ha: evaluated after 13 days, 100=total damage to plant, 0=no damage to plant; for pest or weed control at 250 g/ha: 250 g ai/ha
In short: as §2

[12] = tested on: redroot pigweed (Amaranthus retroflexus); test: Test G Post-Emergence Protocol; conditions: Amaranthus retroflexus, post-emergence, 312 h, read-out: Pigweed, Redroot damage rating; for pest or weed control at 15.625 g/ha: 15.625 g ai/ha, evaluated after 13 days (100=total damage to plant; 0=no damage to plant); for pest or weed control at 62.5 g/ha: 62.5 g ai/ha; for pest or weed control at 62.5 g/ha / pest or weed control at 250 g/ha: evaluated after 13 days, 100=total damage to plant, 0=no damage to plant; for pest or weed control at 250 g/ha: 250 g ai/ha
In short: as §2

| Structure (SMILES) | pest or weed control at 15.625 g/ha [1] | pest or weed control at 62.5 g/ha [1] | pest or weed control at 250 g/ha [1] | pest or weed control at 15.625 g/ha [2] | pest or weed control at 62.5 g/ha [2] | pest or weed control at 250 g/ha [2] | plant injury at 15.625 g/ha (corn (Zea mays) [3]) | plant injury at 62.5 g/ha (corn (Zea mays) [3]) | plant injury at 250 g/ha (corn (Zea mays) [3]) | pest or weed control at 15.625 g/ha [4] | pest or weed control at 62.5 g/ha [4] | pest or weed control at 250 g/ha [4] | pest or weed control at 15.625 g/ha [5] | pest or weed control at 62.5 g/ha [5] | pest or weed control at 250 g/ha [5] | pest or weed control at 15.625 g/ha [6] | pest or weed control at 62.5 g/ha [6] | pest or weed control at 250 g/ha [6] | pest or weed control at 15.625 g/ha [7] | pest or weed control at 62.5 g/ha [7] | also measured |
| --- | --- | --- | --- | --- | --- | --- | --- | --- | --- | --- | --- | --- | --- | --- | --- | --- | --- | --- | --- | --- | --- |
| C=C(C)c1ccccc1NC(=O)[C@H]1C(=O)N(C)C[C@@H]1c1cccc(C(F)(F)F)c1 (racemic) [Compound 1736] | 80% | 90% | 90% | 0% | 10% | 10% | 0% | 0% | 60% | 0% | 60% | 90% | 0% | 0% | 0% | 0% | 20% | 10% | 30% | 80% | pest or weed control at 250 g/ha [7]: 80%; pest or weed control at 15.625 g/ha [8]: 0%; pest or weed control at 62.5 g/ha [8]: 0%; pest or weed control at 250 g/ha [8]: 0%; plant injury at 15.625 g/ha (corn (Zea mays) [9]): 0%; plant injury at 62.5 g/ha (corn (Zea mays) [9]): 0%; plant injury at 250 g/ha (corn (Zea mays) [9]): 70%; pest or weed control at 15.625 g/ha [10]: 0%; pest or weed control at 62.5 g/ha [10]: 30%; pest or weed control at 250 g/ha [10]: 70%; pest or weed control at 15.625 g/ha [11]: 0%; pest or weed control at 62.5 g/ha [11]: 0%; pest or weed control at 250 g/ha [11]: 40%; pest or weed control at 15.625 g/ha [12]: 0%; pest or weed control at 62.5 g/ha [12]: 0%; pest or weed control at 250 g/ha [12]: 0% |
| Cc1ccc([C@H]2CN(C)C(=O)[C@@H]2C(=O)Nc2ccc3cccnc3n2)cc1 (racemic) [Compound 1675] | 0% | 0% | 10% | 0% | 0% | 0% | 0% | 0% | 0% | 0% | 0% | 0% | 0% | 0% | 0% | 0% | 0% | 0% | 0% | 0% | pest or weed control at 250 g/ha [7]: 20%; pest or weed control at 15.625 g/ha [8]: 0%; pest or weed control at 62.5 g/ha [8]: 0%; pest or weed control at 250 g/ha [8]: 10%; plant injury at 15.625 g/ha (corn (Zea mays) [9]): 0%; plant injury at 62.5 g/ha (corn (Zea mays) [9]): 0%; plant injury at 250 g/ha (corn (Zea mays) [9]): 0%; pest or weed control at 15.625 g/ha [10]: 0%; pest or weed control at 62.5 g/ha [10]: 0%; pest or weed control at 250 g/ha [10]: 0%; pest or weed control at 15.625 g/ha [11]: 0%; pest or weed control at 62.5 g/ha [11]: 0%; pest or weed control at 250 g/ha [11]: 0%; pest or weed control at 15.625 g/ha [12]: 0%; pest or weed control at 62.5 g/ha [12]: 0%; pest or weed control at 250 g/ha [12]: 0% |
